{
  "source": "patent US10633416B2",
  "about": "(BGI SHENZHEN CO., LIMITED, priority 2014, dated 2020)",
  "system": "potassium ion channel current of the DRG neurons",
  "assay_type": "cell-based, SD rats",
  "conditions": "5 mM",
  "data": [
    {"smiles": "Nc1ccncc1", "note": "[4AP, 4-aminopyridine]", "values": [
      {"measurement": "Current inhibition rate", "value": 0.338},
      {"measurement": "Current recorded after loading", "value": 0.9766, "unit": "nA"}
    ]}
  ]
}
